Experimental data: US8415339B2, “Bactericidal anti-MRSA active pharmaceutical composition containing carbapenems” (priority 2007, dated 2013)
Values joined by “and” are separate entries in the source; they are usually repeats but may differ in a detail not shown here. Identical values can stand only once.

What was measured:
MRSA 7268/02 [1] = experiment: Agar diffusion (plate/disk) test, inhibition zone; format: cell-based, Staph. aureus; conditions: 20 hrs at 37° C.; for zone of inhibition at 10 µg/disc: Staphylococcus aureus, MRSA, 20 h, read-out: Diameter of inhibition zone
Description: (§1) Inhibition zone diameters were determined on Difco Nutrient Agar (10 ml) in sterile dishes (8.5 cm) using ca. 10^6-10^7 colony forming units. 0.2 ml of a bacterial suspension (overnight culture in Difco Nutrient Broth) was mixed at 52° C. with the sterile liquid agar. It solidified at room temperature. Sterile filter disks (6 mm) were placed on the agar surface. Appropriate volumes of a 0.2% aqueous solutions of antibiotics were transferred to the disks by a precision syringe. Alternatively, commercial impregnated disks (Oxoid) were used.
(§2) The inhibition zone diameter was measured after 20 hrs at 37° C. For determination of bactericidal activity, incubation at 37° C. was continued for additional 40 hrs. A clear inhibition zone after additional incubation indicated bactericidity (B).

Staph. Innsbruck [2] = experiment: Agar diffusion (plate/disk) test, inhibition zone; format: cell-based, Staph. aureus; conditions: 20 hrs at 37° C.; for zone of inhibition at 10 µg/disc: Staphylococcus aureus, 20 h, read-out: Diameter of inhibition zone
Description: as §1, §2

Staph. Innsbruck [3] = experiment: Minimal inhibitory concentration, agar dilution; format: cell-based, Staph. aureus; conditions: Difco Nutrient Agar, 20 hrs at 37° C., combinations as a + b; for MIC: Staphylococcus aureus
Description: (§3) Minimal inhibitory concentrations were determined using Difco Nutrient Agar. Appropriate volumes of 0.1% aqueous solutions of antibiotics were added into sterile dishes (8.5 cm) in twofold dilutions and mixed with 10 ml of sterile liquid agar of 50° C. The solid agar was inoculated with 3 μl of an 0.5 McFarland bacterial solution in Difco Nutrient Broth, corresponding to approx. 10^5 colony forming units. Bacterial growth was recorded after 20 hrs of incubation at 37° C.

MRSA 7268/02 [4] = experiment: Minimal inhibitory concentration, agar dilution; format: cell-based, Staph. aureus; conditions: Difco Nutrient Agar, 20 hrs at 37° C., combinations as a + b; for MIC: Staphylococcus aureus, MRSA
Description: as §3

MRSA 7268/02 [5] = experiment: Time dependent counting of colony forming units (cfu); format: cell-based, Staph. aureus
MRSA München 12797 = experiment: Mouse septicaemia test; format: in vivo; conditions: s. c., at 1 hr and 4 hr after i.v. infection, observed 10 days
Description: In vivo activity was determined by a mouse septicaemia test using immunocompetent animals of 30 g weight (6 animals per group). Infection was performed with MRSA München 12797 at a concentration of approx. 2×10^9 cfu/mouse by the i.v. route (lethal dose). Therapy was performed at daily doses from 5+5 to 75+75 mg/kg by s. c. route (equivalent amounts at time 1 hr and 4 hr after infection).

[6] = single antibiotic 30 μg per disk
[7] = carbapenem alone 10 μg per disk

Compound	Diameter of inhibition zone (MRSA 7268/02 [1]; [6])	Diameter of inhibition zone (Staph. Innsbruck [2]; [6])	further results
CCN1CCN(C(=O)N[C@@H](C(=O)N[C@@H]2C(=O)N3C(C(=O)O)=C(CSc4nnnn4C)CS[C@H]23)c2ccc(O)cc2)C(=O)C1=O [Cefoperazone]	9 mm		
Cc1onc(-c2ccccc2)c1C(=O)N[C@@H]1C(=O)N2[C@@H]1SC(C)(C)[C@@H]2C(=O)O [Oxacillin]	0 mm	0 mm	
CN(C)CCn1nnnc1SCC1=C(C(=O)O)N2C(=O)[C@@H](NC(=O)Cc3csc(N)n3)[C@H]2SC1 [Cefotiam]		0 mm	
CC(=O)NCSC1=C(C(=O)[O-])N2C(=O)[C@H]([C@@H](C)O)[C@H]2[C@H]1C.[K+] [GH 519, Potassium (1R,5S,6S)-2-[(N-acetylamino)methylthio]-6-[(R)-1-hydroxyethyl]-1-methyl-carbapenen-2-em-3-carboxylate]			Diameter of inhibition zone (Staph. Innsbruck [2]; [7]): 0 mm; Diameter of inhibition zone (MRSA 7268/02 [1]; [7]): 0 mm
Cc1onc(-c2c(Cl)cccc2Cl)c1C(=O)N[C@@H]1C(=O)N2[C@@H]1SC(C)(C)[C@@H]2C(=O)O [Dicloxacillin]	0 mm	0 mm	
CC1(C)S[C@@H]2[C@H](NC(=O)[C@H](N)c3ccc(O)cc3)C(=O)N2[C@H]1C(=O)O [Amoxicillin]	0 mm	10 mm	MIC (Staph. Innsbruck [3]): 64 µg/mL; MIC (MRSA 7268/02 [4]): 32 µg/mL
C=CC1=C(C(=O)O)N2C(=O)[C@@H](NC(=O)/C(=N\O)c3csc(N)n3)[C@H]2SC1 [Cefdinir]	0 mm		
CC1(C)S[C@@H]2[C@H](NC(=O)[C@H](N)C3=CCC=CC3)C(=O)N2[C@H]1C(=O)O [Epicillin]	14 mm and 12 mm	10 mm and 14 mm and 12 mm	Minimal Inhibitory concentration (Staph. Innsbruck [3]): 32 µg/mL; Minimal Inhibitory concentration (MRSA 7268/02 [4]): 32 µg/mL; Reduction of cfu's, substance used alone (MRSA 7268/02 [5]): Neither epicillin, nor linezolide showed any significant reduction of cfu's
N[C@@H](C(=O)N[C@@H]1C(=O)N2C(C(=O)O)=C(Cl)CS[C@H]12)c1ccccc1 [Cefaclor]	11 mm		
C=CC1=C(C(=O)O)N2C(=O)[C@@H](NC(=O)/C(=N\OCC(=O)O)c3csc(N)n3)[C@H]2SC1 [Cefixim]		0 mm	
CC(=O)OCC1=C(C(=O)O)N2C(=O)[C@@H](NC(=O)Cc3cccs3)[C@H]2SC1 [Cephalothin]	0 mm		
CC1(C)S[C@@H]2[C@H](NC(=O)C(C(=O)O)c3ccccc3)C(=O)N2[C@H]1C(=O)O (stereo partly shown) [Carbenicillin]	0 mm		
CC1(C)S[C@@H]2[C@H](NC(=O)[C@H](N)c3ccccc3)C(=O)N2[C@H]1C(=O)O [Ampicillin]	12 mm	12 mm	
Cc1nnc(SCC2=C(C(=O)O)N3C(=O)[C@@H](NC(=O)Cn4cnnn4)[C@H]3SC2)s1 [Cefazolin]	0 mm	0 mm	
CO/N=C(\C(=O)N[C@@H]1C(=O)N2C(C(=O)O)=C(CSc3nc(=O)c(=O)[nH]n3C)CS[C@H]12)c1csc(N)n1 [Ceftriaxon]	0 mm	0 mm	
C[C@@H](O)[C@H]1C(=O)N2C(C(=O)O)=C(SCCN=CN)C[C@H]12 [Imipenem]			zone of inhibition at 10 µg/disc (Staph. Innsbruck [2]; [7]): 8 mm; zone of inhibition at 10 µg/disc (MRSA 7268/02 [1]; [7]): 8 mm
CCN1CCN(C(=O)N[C@@H](C(=O)N[C@@H]2C(=O)N3[C@@H]2SC(C)(C)[C@@H]3C(=O)O)c2ccccc2)C(=O)C1=O [Piperacillin]	0 mm	0 mm	
C[C@@H](O)[C@H]1C(=O)N2C(C(=O)O)=C(SCOCCN)[C@H](C)[C@H]12 [GH 570, (1R,5S,6S)-2-[(2-Aminoethyl)oxy]metlhylthio-6-[(R)-1-hydroxyethyl]-1-methylcarbapen-2-em-3-carboxylic acid]			Diameter of inhibition zone (Staph. Innsbruck [2]; [7]): 0 mm; Diameter of inhibition zone (MRSA 7268/02 [1]; [7]): 0 mm
C[C@@H](O)[C@H]1C(=O)N2C(C(=O)O)=C(S[C@@H]3CN[C@H](C(=O)Nc4cccc(C(=O)O)c4)C3)[C@H](C)[C@H]12 [Ertapenem]			zone of inhibition at 10 µg/disc (Staph. Innsbruck [2]; [7]): 0 mm; zone of inhibition at 10 µg/disc (MRSA 7268/02 [1]; [7]): 0 mm
CO[C@@]1(NC(=O)C(C(=O)O)c2ccc(O)cc2)C(=O)N2C(C(=O)O)=C(CSc3nnnn3C)CO[C@@H]21 (stereo partly shown) [Moxalactam]		8 mm	
CO[C@@]1(NC(=O)Cc2cccs2)C(=O)N2C(C(=O)O)=C(COC(N)=O)CS[C@@H]21 [Cefoxitin]	0 mm	11 mm	MIC (Staph. Innsbruck [3]): 32 µg/mL
C[C@@H](O)[C@H]1C(=O)N2C(C(=O)O)=C(S[C@@H]3CN[C@H](C(=O)N(C)C)C3)[C@H](C)[C@H]12 [Meropenem]			zone of inhibition at 10 µg/disc (Staph. Innsbruck [2]; [7]): 14 mm; zone of inhibition at 10 µg/disc (MRSA 7268/02 [1]; [7]): 13 mm; MIC (Staph. Innsbruck [3]): 32 µg/mL; MIC (MRSA 7268/02 [4]): 16 µg/mL; Bactericidal effect compared with epicillin/meropenem 2+2 μg/ml (MRSA 7268/02 [5]; 4 μg/ml alone): less bactericidal than the epicillin/meropenem composition at 2+2 μg/ml; ED90 (MRSA München 12797): > 75+75 mg/kg
CO/N=C(\C(=O)N[C@@H]1C(=O)N2C(C(=O)O)=C(COC(C)=O)CS[C@H]12)c1csc(N)n1 [Cefotaxime]	0 mm	0 mm	
Cc1onc(-c2ccccc2Cl)c1C(=O)N[C@@H]1C(=O)N2[C@@H]1SC(C)(C)[C@@H]2C(=O)O [Cloxacillin]	0 mm	0 mm	
COc1cccc(OC)c1C(=O)N[C@@H]1C(=O)N2[C@@H]1SC(C)(C)[C@@H]2C(=O)O [Methicillin]		0 mm	
CN[C@H](CC(C)C)C(=O)N[C@H]1C(=O)N[C@@H](CC(N)=O)C(=O)N[C@H]2C(=O)N[C@H]3C(=O)N[C@H](C(=O)N[C@H](C(=O)O)c4cc(O)cc(O)c4-c4cc3ccc4O)[C@H](O)c3ccc(c(Cl)c3)Oc3cc2cc(c3O[C@@H]2O[C@H](CO)[C@@H](O)[C@H](O)[C@H]2O[C@H]2C[C@](C)(N)[C@H](O)[C@H](C)O2)Oc2ccc(cc2Cl)[C@H]1O [Vancomycin]	19 mm	20 mm	
CC(=O)NC[C@H]1CN(c2ccc(N3CCOCC3)c(F)c2)C(=O)O1 [linezolide]			Reduction of cfu's, substance used alone (MRSA 7268/02 [5]): Neither epicillin, nor linezolide showed any significant reduction of cfu's
CO/N=C(\C(=O)N[C@@H]1C(=O)N2C(C(=O)O)=C(COC(N)=O)CS[C@H]12)c1ccco1 [Cefuroxim]	0 mm		
COCSC1=C(C(=O)[O-])N2C(=O)[C@H]([C@@H](C)O)[C@H]2[C@H]1C.[K+] [GH 478, Potassium (1R,5S,6S)-6-[(R)-1-hydroxyethyl]-2-methoxymethylthio-1-methylcarbapen-2-em-3-carboxylate]			Diameter of inhibition zone (Staph. Innsbruck [2]; [7]): 0 mm
NC(=O)c1cc[n+](CC2=C(C(=O)[O-])N3C(=O)[C@@H](NC(=O)[C@@H](c4ccccc4)S(=O)(=O)O)[C@H]3SC2)cc1 [Cefsudolin]	0 mm	0 mm	
